The text below walks through data of patent publication US6068976A, “Modulators of ob gene and screening methods therefor” (priority 1996, dated 2000).

The test system of series [1] is PPAR nuclear hormone receptors. The settings on record: cited from earlier work.
Series [2] has as its system ob gene. The experiment in a line: In vivo ob mRNA levels in adipose tissue of treated rats (Northern/dot blot, actin-normalised). The arrangement: species or system rat.
Series [3] deals with ob gene. In words: Ex vivo endogenous ob mRNA expression in rat primary adipocytes. In kind it is cell-based. The conditions noted are these: for ob mRNA expression in primary rat adipocytes: 24 hr; for production of ob messenger RNA in rat primary adipocytes: insulin 100 nM or dexamethasone 33 nM.
In series [4] the test system is human ob promoter. In words: Human ob promoter-luciferase reporter in transfected 3T3-L1 cells. On the technique in general: Reporter assays use an easily measured gene product as a stand-in for the process of interest.
Series [5] is described as follows: In vivo body weight, food intake and tissue weights in treated rats. The conditions noted are these: for Epidydimal fat pad weight / Liver weight / Body Mass: oral gavage; for Epidydimal fat pad weight: control 2.5 ± 0.3, * p < 0.05; for Liver weight: control 16.8 ± 1.3; for Body Mass: control 344 ± 22; for food consumption: 4 days, triamcinolone 20 or dexamethasone 3.7 μg/g body weight/day.

Series [6] has as its system human ob promoter. In words: Human ob promoter-luciferase reporter in transfected rat primary adipocytes.
Series [7] relates to 3T3-F442A and ob 17 cells. The conditions noted are these: cited from earlier work.
Series [8] in a line: Body weight and food intake of male mice injected with ethinylestradiol. In kind it is in vivo, mouse. The settings on record: 0.75 μg/g body weight, 7 day.
For series [9] the following is noted: cited from earlier work.
Another series concerns cachexia. The settings on record: cancer patients; cited from earlier work.
The mark [10] stands for this setting: 4 days, triamcinolone 20 or dexamethasone 3.7 μg/g body weight/day.
Where [11] appears, read: fenofibrate 0.5% w/w in food, 14 days.
Setting [12] is: hydrocortisone 1, 10 or 100 μg/g body weight, s.c., once daily, 20 days.
[13] abbreviates: hydrocortisone 100 μg/g body weight, once daily, 20 days.

Where two headings read alike, the source gives them in different places. No end group written: not given here.

With `O=C(O)COc1cc(Cl)c(Cl)cc1Cl` [2,4,5-trichlorophenoxyacetic acid], the “transcriptional activity of PPARs” value in series [1] was “transcriptional activity of the PPARs can be induced”.

As to `CN(CCOc1ccc(CC2SC(=O)NC2=O)cc1)c1ccccn1` (stereo not shown) [BRL 49653, 5-[[4-[2-(methyl-2-pyridinylamino)ethoxy]phenyl]methyl]-2,4-thiazolidinedione], the “effect on ob mRNA expression, dose dependence” value with ob gene [2] (BRL 49653 0, 1, 2 or 5 mg/kg/day, 7 days) was “dose-dependent”. For the same molecule, in the series on ob gene [2] (BRL 49653 5 mg/kg/day, 7 days), the “decrease of ob mRNA levels in epidydimal fat pads” value was 40%. Also, in the series with ob gene [3] (100 μM, three independent experiments), the “ob mRNA expression in primary rat adipocytes” value is recorded as “reduced ob mRNA expression significantly”. Further, the “suppression of ob gene expression by PPARγ in primary adipocytes” value in the series on ob gene [3] (primary adipocytes) is “amplifies the suppression of ob gene expression by PPARγ in primary adipocytes”. Also, the “effect on pGL3-OB1 in addition to PPARγ” value with human ob promoter [4] (with PPARγ cotransfection) is “slight cumulative effect”. Also, the “body or liver weight” value in series [5] (0, 1, 2, and 5 mg/kg/day over 7 days) is recorded as “no change in either body or liver weight”. In addition, the “ratio of adipose tissue/body weight after treatment” value in [5] (5 mg/kg/day, 7 days, 0.75%±0.1 before, p<0.05) is 1.2%±0.2. The food intake result is on record as “significant dose dependent increase in food intake” in series [5] (5, 10, 20 mg/kg/day over 7 days) and “food intake showed a tendency to decrease, although no statistical significance was obtained” in [5] (relatively low doses (1, 2, 5 mg/kg/day), 7 days). The “Epidydimal fat pad weight” value in series [5] (BRL 49653 1 mg/kg/day, 7 days) was 3.3 ± 0.2 g; in [5] (BRL 49653 2 mg/kg/day, 7 days), 3.8 ± 0.5 g; in series [5] (BRL 49653 5 mg/kg/day, 7 days), 4.0 ± 0.6 g. The Liver weight in series [5] (BRL 49653 1 mg/kg/day, 7 days) turned out to be 17.9 ± 1.3 g; in series [5] (BRL 49653 2 mg/kg/day, 7 days), 18.9 ± 0.6 g; in series [5] (BRL 49653 5 mg/kg/day, 7 days), 17.4 ± 1.8 g. For the same molecule, the “Body Mass” value is reported as 355 ± 21 g in series [5] (BRL 49653 1 mg/kg/day, 7 days, mean ± SD); 361 ± 18 g in series [5] (BRL 49653 2 mg/kg/day, 7 days); 338 ± 9 g in series [5] (BRL 49653 5 mg/kg/day, 7 days). In series [5] (BRL 49653 1, 2, 5 mg/kg/day, 7 days), the “epidydimal fat pad weight (trend)” value is “dose-dependent increase in epidydimal fat pad weight”. The “food intake and body weight (summary statement)” value in series [5] (rats) is “increasing food intake and body weight in rats”. The “additional effect on ob promoter activity” value with human ob promoter [6] (10 μM, with PPARγ cotransfection) is on record as “no further effect”. In the series with human ob promoter [6] (Homo sapiens, Adipocyte, read-out: ob promoter activity reduced to), the activity at 10 µM turned out to be 40%.

With `CC(C)(Oc1ccc(Cl)cc1)C(=O)O` [Clofibric acid], the “transcriptional activity of PPARs” value in series [1] is reported as “stimulate transcriptional activity of the PPAR nuclear hormone receptors”.

`C[C@]12CC[C@H](O)CC1=CC[C@@H]1[C@@H]2CC[C@]2(C)C(=O)CC[C@@H]12` [DHEA, Dihydroepiandosterone]: in series [5] (DHEA, short experiment, rats), the food intake entry is listed as “significant decrease in food intake”. Moreover, the “gain in body weight” value in series [5] (DHEA, three day treatment, rats) is reported as “capable of reducing the gain in body weight already after a three day treatment period”.

For `CCc1ccc(CCOc2ccc(CC3SC(=O)NC3=O)cc2)nc1` (stereo not shown) [Pioglitazone, pioglitazone], the inhibition at 10 µM is approximately 30% in the series on human ob promoter [6] (Homo sapiens, Adipocyte, read-out: decrease in pGL3-OB1 expression) and approximately 50% in the series on human ob promoter [6] (Homo sapiens, Adipocyte, read-out: inhibition of pGL3-OB1 expression).

As for `CC1=C(/C=C/C(C)=C/C=C/C(C)=C/C(=O)O)C(C)(C)CCC1` [Retinoic acid], the adipogenesis result in series [7] was “inhibit adipogenesis”.

In the case of `C[C@@H]1C[C@H]2[C@@H]3CCC4=CC(=O)C=C[C@]4(C)[C@@]3(F)[C@@H](O)C[C@]2(C)[C@@]1(O)C(=O)CO` [dexamethasone], the “ob mRNA levels” value in the series with ob gene [2] (setting [10]) is given as “increase of ob mRNA levels”. In addition, the “increase of ob mRNA levels in rat adipose tissue” value in the series with ob gene [2] (within 24 hr after a single injection of dexamethasone (3.7 μg/g)) is reported as 2.2 fold. Further, the “stimulation of ob gene expression, comparison with insulin” value in the series on ob gene [3] (dexamethasone 33 nM vs insulin 100 nM, 48 hours) is on record as “stronger stimulation of ob gene expression than insulin”. Besides, the “production of ob messenger RNA in rat primary adipocytes” value with ob gene [3] (48 hours) is recorded as “stimulated production of the ob messenger RNA”. For the same molecule, the food consumption entry in [5] is “reduced food consumption”.

On to `CCCCC(CC)COC(=O)c1ccccc1C(=O)OCC(CC)CCCC` (stereo not shown) [di-(2-ethylhexyl)-phtalate], for which the “transcriptional activity of PPARs” value in series [1] is reported as “transcriptional activity of the PPARs can be induced”.

As to `C#C[C@]1(O)CC[C@H]2[C@@H]3CCc4cc(O)ccc4[C@H]3CC[C@@]21C` [ethinyl estradiol, ethinylestradiol], the “decrease in body weight” value in series [8] (injected, sham +1.81±1.04%) was 14.83±1.44%. The food intake entry in [8] (male mice) is reported as “important reduction in food intake”. Further, in series [9] (ovariectomized rats, pair-fed), the “body weight effect under pair-feeding” value is given as “pair-feeding abolished the effects of estrogens on body weight”. In addition, the body weight entry in [9] (ovariectomized rats, substitution therapy) is “marked effect on body weight in ovariectomized rats”.

Regarding `CC(C)(Oc1ccc(Cl)cc1)C(=O)OCCOC(=O)c1cccnc1` [etiofibrate], the “transcriptional activity of PPARs” value in series [1] is given as “stimulate transcriptional activity of the PPAR nuclear hormone receptors”.

For `CC(C)OC(=O)C(C)(C)Oc1ccc(C(=O)c2ccc(Cl)cc2)cc1` [fenofibrate], the “ob mRNA levels” value with ob gene [2] (setting [11]) is given as “did not result in a reduction of ob mRNA levels”. Further, the “transcriptional activity of PPARs” value in [1] is reported as “stimulate transcriptional activity of the PPAR nuclear hormone receptors”. Also, the “body or adipose tissue weight” value in [5] (setting [11]) is listed as “did not result in a change in body or adipose tissue weight”. Also, the “liver weight after treatment” value in series [5] (fenofibrate 0.5% w/w in food, 14 days, from 13.8±0.5) is 19.7 ± 2.5 g.

`CC(C)(Oc1ccc(C(=O)c2ccc(Cl)cc2)cc1)C(=O)O` [fenofibric acid]: in the series with ob gene [3] (250 μM), the “ob mRNA expression in primary rat adipocytes” value is reported as “no effect of fenofibrate on ob mRNA levels was detected”.

Regarding `Cc1ccc(C)c(OCCCC(C)(C)C(=O)O)c1` [gemfibrozil], the “transcriptional activity of PPARs” value in series [1] is “stimulate transcriptional activity of the PPAR nuclear hormone receptors”.

As to `C[C@]12CCC(=O)C=C1CC[C@@H]1[C@@H]2[C@@H](O)C[C@@]2(C)[C@H]1CC[C@]2(O)C(=O)CO` [hydrocortisone], the “time of maximal ob mRNA effect” value in the series with ob gene [2] (hydrocortisone 100 μg/g body weight/day) is given as 2 days. Moreover, the “increase of ob mRNA levels” value in the series with ob gene [2] (hydrocortisone 100 μg/g body weight/day, adipose tissue) was “more than 2 fold”. The “ob mRNA levels in adipose tissue” value with ob gene [2] (setting [12]) is reported as “dose-dependent induction of ob mRNA levels in adipose tissue”. Moreover, the “β-actin mRNA levels” value in the series with ob gene [2] (hydrocortisone, entire treatment period) was “remained constant”. Also, the “body weight at end of treatment” value in [5] (hydrocortisone 100 μg/g body weight, 20 days) is “slight decrease in body weight”. For the same molecule, in [5] (setting [13]), the body weight gain result is reported as “completely prevented this gain in body weight” and the “reduction of food consumption vs untreated animals” value is listed as 10-15%. Besides, the body weight gain entry in [5] (setting [12]) is given as “dose-dependent reduction in body weight gain”.

As to `CC(=O)CCCCn1c(=O)c2c(ncn2C)n(C)c1=O` [pentoxifylline], in the series on cachexia, the reduction of cachexia entry is recorded as “improve the conditions of some patients”.

On to `N[C@@H](Cc1cc(I)c(Oc2cc(I)c(O)c(I)c2)c(I)c1)C(=O)O` [thyroxine], for which, in series [9] (rats, literature), the body weight entry is listed as “decrease in body weight” and the food intake entry is recorded as “increase in food intake”.

As to `C[C@]12C=CC(=O)C=C1CC[C@H]1[C@@H]3C[C@@H](O)[C@](O)(C(=O)CO)[C@@]3(C)C[C@H](O)[C@@]12F` [triamcinolone], in the series with ob gene [2] (setting [10]), the “ob mRNA levels” value is recorded as “increase of ob mRNA levels”. Moreover, the food consumption result in series [5] is on record as “reduced food consumption”.

On to N-propyl-thiouracil, for which, in series [9] (rats, literature), the body weight entry was “significant increase in body weight” and the food intake result was “ingest less food”.

As for “corticotropin-releasing hormone: corticotropin-releasing hormone (SEEPPISLDLTFHLLREVLEMARAEQLAQQAHSNRKLMEII; ends and bridges not checked; UniProt P06850 154-194, looked up)”, in series [9] (hypothalamic administration, fat rats), the body weight result is “reduces body weight”.

In the case of “insulin: insulin (1 U; Actrapid HMge, Novo Nordisk)”, in the series with ob gene [2] (hyper- or eu-glycemic clamps), the “stimulatory effect of insulin on ob mRNA under clamp” value is on record as “maintained when plasma glucose levels were maintained at either high or low levels”. The “ob mRNA level, refeeding plus insulin” value with ob gene [2] (refeeding plus insulin after overnight fast) is recorded as “no additive effects on ob mRNA level”. Moreover, in the series with ob gene [2] (single dose insulin (1 U), fasted rats, 4 hours), the “increase in adipose tissue ob gene expression relative to fasted rats” value is recorded as 50-60%. For the same molecule, in the series on ob gene [2] (single subcutaneous injection 1 I.U. insulin, 4 hours post injection, fasted rats), the “increase in ob mRNA relative to actin controls” value is given as “approximately two-fold increase”. The “production of ob mRNA in primary rat adipocytes” value with ob gene [3] (1 or 10 nM insulin, 10% FBS) is on record as “stimulated the production of ob mRNA in a dose dependent manner”. In the series on ob gene [3] (48 hours), the “production of ob messenger RNA in rat primary adipocytes” value is on record as “stimulated production of the ob messenger RNA”. Besides, the “ob promoter luciferase expression in response to insulin” value in the series on human ob promoter [4] (pGL3-OB1 in 3T3-L1 cells, insulin, control plasmid unaffected) is reported as “two-fold”. In addition, the “increase of the level of ob mRNA (pGL3B-OB1 luciferase vector)” value in the series on human ob promoter [6] (200 nM insulin, 10% FBS, primary adipocytes with pGL3B-OB1) was determined as 140%.
